In patent US20070265164A1, “Active Substances for Increasing Pathogenic Defense in Plants and Methods for the Detection Thereof” (Bayer Cropscience GmbH, priority 2004, published 2007):

Tests used:
Format in all cases: in vivo
Parameters in all cases: fold induction: dose or concentration left out as unconfirmed
[1] = tested on: Contig8905_at, Xytanase inhibitor protein; experiment: GEP, barley DNA chip, probe set 3.1; settings: barley leaves 6 h after spray application, median induction factor vs control; for fold induction: Hordeum vulgare, topical, rates of Table 1 (S7 500), read-out: Expression value, 3.1 Contig8905_at
Procedure: (§1) Barley plants (cv. Baronesse) were grown in compost-filled pots (diameter: 10 cm) for 10 days in a controlled-environment cabinet under defined light, humidity and temperature conditions (white light, 70% atmospheric humidity, 24° C.). At the time of spray application, the seedlings were approximately 15 cm in size. The test substances selected in this example were molecules which differ markedly in their structure and which have a well documented pronounced safener effect, and other molecules which are known from the literature to have an effect on plant stress and pathogen tolerance (Table 1). The substances were prepared as stock solutions in DMSO (dimethyl sulfoxide) at c=10 mg/ml). This was used for preparing dilutions in water supplemented with 0.2% Agrotin (comprises polyvinyl alcohol, silicones, polysaccharides and pH regulators, manufacturer: Bayer CropScience AG, Monheim, Germany), as wetter, to give the application rates shown in the table. The amount of liquid for the spray application was 800 μl per pot, corresponding to 800 l/ha. For each 800 μl of spray mixture, 16 μl of EC premix: diacetone alcohol=1:6 were additionally added as formulation auxiliaries. The substances listed in Table 1 were applied to the leaves by means of a pneumatic spray pistol. Each substance was sprayed as 2 dosages, and all experiments were carried out as replicates (2 pots per substance). Sprayings with blank formulation without active ingredient were carried out as controls. After 6 hours, the leaves were harvested, frozen in liquid nitrogen and stored at −80° C. until further use. The labeled RNA probes for the DNA chip hybridization were prepared as described in the protocols (Expression Analysis, Technical Manual) from Affymetrix (Affymetrix Inc., 3380 Central Expressway, Santa Clara, Calif., USA). First, total RNA was isolated from in each case 500 mg of the harvested leaves. In each case 10 μg of total RNA was used for the first-strand and second-strand cDNA synthesis. The cDNA was amplified with T7 polymerase and simultaneously labeled with biotin-UTP. In each case, 20 μg of this biotinylated cDNA was employed for the hybridization of the barley genome array (Gene Chip Barleyl, order No.: 511012) from Affymetrix. This DNA microarray comprises DNA sequences of 22 840 genes which are composed of a total of 400 000 EST sequences. Thereafter, the DNA microarrays were washed in the Affymetrix Fluidics Station, stained with streptavidin/phycoerythrin (Molecular Probes, P/N S-866) and scanned with the matching Agilent Laser Scanner (Agilent Gene Array Scanner). The fluorescent data obtained were analyzed with the software Microarray Suite 5 from Affymetrix. After the quality had been checked, all DNA chip analyses were stored in a database. To determine the relative expression values for genes (induction factors, repression factors), test and control chips were compared with each other, and the scoring function set by the Affymetrix software was used as the basis. The 2 biological replications of one experiment were compared in each case with 2 control chips (blank formulation), and the 4 expression values obtained for each gene were used for calculating the median. These medians are shown in the results tables as induction factors. Similarity comparisons of expression profiles from different experiments and cluster analyses were carried out using the software GeneMaths 1.5 from Applied Maths (Applied Maths, Keistraat 120, 9830 Sint-Martens-Latem, Belgium).
(§2) Gene groups from specific metabolic pathways and signal transduction chains were put together by key word search in the annotations, of the genes, which were also provided by Affymetrix, and by Blast analyses (homology comparisons) of the DNA target sequences, i.e. of the positive sequence (identified on the basis of a modified expression profile) identified on the DNA chip, using gene sequences from other organisms, preferably plant organisms, with characterized functions. […]

[2] = tested on: Contig2631_at, Lipase-like Protein (jasmonic acid biosynthesis gene); experiment: Gene expression profiling (GEP), barley DNA chip, probe set 1.1; settings: barley leaves 6 h after spray application, median induction factor vs control; for fold induction: Hordeum vulgare, rates of Table 1 (S7 500)
Procedure: as §1, §2

[3] = tested on: Contig15_a_at, GDSL-motif lipase/hydrolase-like protein; experiment: GEP, barley DNA chip, probe set 1.9; settings: barley leaves 6 h after spray application, median induction factor vs control; for fold induction: Hordeum vulgare, topical, rates of Table 1 (S7 500), read-out: Expression value, 1.9 Contig15_a_at
Procedure: as §1, §2

[4] = tested on: Contig6611_at, Similar to lipases; experiment: GEP, barley DNA chip, probe set 1.12; settings: barley leaves 6 h after spray application, median induction factor vs control; for fold induction: Hordeum vulgare, topical, rates of Table 1 (S7 500), read-out: Expression value, 1.12 Contig6611_at
Procedure: as §1, §2

[5] = tested on: HI02E21u_s_at, Lipoxygenase (EC 1.13.11.12); experiment: GEP, barley DNA chip, probe set 1.2; settings: barley leaves 6 h after spray application, median induction factor vs control; for fold induction: Hordeum vulgare, topical, rates of Table 1 (S7 500), read-out: Expression value, 1.2 HI02E21u_s_at
Procedure: as §1, §2

[6] = tested on: Contig9556_at, 12-oxophytodienoate reductase 3; experiment: GEP, barley DNA chip, probe set 1.8; settings: barley leaves 6 h after spray application, median induction factor vs control; for fold induction: Hordeum vulgare, topical, rates of Table 1 (S7 500), read-out: Expression value, 1.8 Contig9556_at
Procedure: as §1, §2

[7] = tested on: Contig2118_at, Peroxidase (EC 1.11.1.7), pathogen-induced; experiment: GEP, barley DNA chip, probe set 4.1; settings: barley leaves 6 h after spray application, median induction factor vs control; for fold induction: Hordeum vulgare, topical, rates of Table 1 (S7 500), read-out: Expression value, 4.1 Contig2118_at
Procedure: as §1, §2

[8] = tested on: Contig2305_at, Methyljasmonate inducible lipoxygenase; experiment: GEP, barley DNA chip, probe set 1.14; settings: barley leaves 6 h after spray application, median induction factor vs control; for fold induction: Hordeum vulgare, topical, rates of Table 1 (S7 500), read-out: Expression value, 1.14 Contig2305_at
Procedure: as §1, §2

[9] = tested on: Contig88_x_at, Putative proteinase inhibitor; experiment: GEP, barley DNA chip, probe set 2.3; settings: barley leaves 6 h after spray application, median induction factor vs control; for fold induction: Hordeum vulgare, topical, rates of Table 1 (S7 500), read-out: Expression value, 2.3 Contig88_x_at
Procedure: as §1, §2

[10] = tested on: Contig3097_at, Allene oxide synthase; experiment: GEP, barley DNA chip, probe set 1.3; settings: barley leaves 6 h after spray application, median induction factor vs control; for fold induction: Hordeum vulgare, topical, rates of Table 1 (S7 500), read-out: Expression value, 1.3 Contig3097_at
Procedure: as §1, §2

[11] = tested on: Contig2088_s_at, Bowman-Birk type trypsin inhibitor; experiment: GEP, barley DNA chip, probe set 2.1; settings: barley leaves 6 h after spray application, median induction factor vs control; for fold induction: Hordeum vulgare, topical, rates of Table 1 (S7 500), read-out: Expression value, 2.1 Contig2088_s_at
Procedure: as §1, §2

[12] = tested on: Contig1736_at, Lipoxygenase 1 (EC 1.13.11.12); experiment: GEP, barley DNA chip, probe set 1.10; settings: barley leaves 6 h after spray application, median induction factor vs control; for fold induction: Hordeum vulgare, rates of Table 1 (S7 500), read-out: Expression value, 1.10 Contig1736_at
Procedure: as §1, §2

[13] = tested on: Contig10030_at, Putative lipase homolog; experiment: GEP, barley DNA chip, probe set 1.13; settings: barley leaves 6 h after spray application, median induction factor vs control; for fold induction: Hordeum vulgare, topical, rates of Table 1 (S7 500), read-out: Expression value, 1.13 Contig10030_at
Procedure: as §1, §2

[14] = rates of Table 1 (150 g a.i./ha, S7 500)

| SMILES | fold induction [1] | fold induction [2] | fold induction [3] | fold induction [4] | fold induction [5] | fold induction [6] | fold induction [7] | fold induction [8] | fold induction [9] | fold induction [10] | fold induction [11] | fold induction [12] | fold induction [13] | also measured |
| --- | --- | --- | --- | --- | --- | --- | --- | --- | --- | --- | --- | --- | --- | --- |
| NC(=O)c1ccc(C(F)(F)F)nc1O [S6] | 2.45 | 1 | 1 | 1 | 1 | 1 | 2.2 | 1 | 1 | 1 | 1 | 1 | 1 |  |
| COC(=O)C1=NN(c2ccc(Cl)cc2Cl)C(C)(C(=O)OC)C1 (stereo not shown) [S1, Mefenpyr-dimethyl] | 3.1 | 1 | 0.35 | 1 | 1 | 1 | 8.69 | 1 | 1 | 1 | 1 | 1 | 1 |  |
| CCOC(=O)C(Oc1ccc(Cl)c2cccnc12)C(=O)OCC [S5] | 3.01 | 1 | 0.46 | 1 | 1 | 1 | 2.33 | 1 | 1 | 1 | 1 | 1 | 1 |  |
| CCCCCC(C)OC(=O)COc1ccc(Cl)c2cccnc12 (stereo not shown) [S4, Cloquintocet-mexyl] | 2.73 | 1 | 1 | 1 | 1 | 1 | 1 | 1 | 1 | 1 | 1 | 1 | 1 |  |
| O=C(O)c1cc(Cl)cc(Cl)c1O [S10] | 1 | 1 | 1 | 2.38 | 4.66 | 1 | 1 | 18.1 | 4.41 | 1 | 2.41 | 1 | 1 |  |
| O=C(O)C1=NN(c2ccc(Cl)cc2Cl)C(c2ccc(F)cc2)C1 (stereo not shown) [S2] | 2.53 | 1 | 1 | 1 | 1 | 1 | 1 | 1 | 1 | 1 | 1 | 1 | 1 |  |
| O=C(NO)c1ccccc1O [S7, Salicyl hydroxamate] |  |  |  |  |  |  |  |  |  |  |  |  |  | Expression value, 3.1 Contig8905_at [1, 14]: 1.00 x times; Expression value, 1.1 Contig2631_at [2, 14]: 1.00 x times; Expression value, 1.9 Contig15_a_at [3, 14]: 1.00 x times; Expression value, 1.12 Contig6611_at [4, 14]: 2.31 x times; Expression value, 1.2 HI02E21u_s_at [5, 14]: 1.00 x times; Expression value, 1.8 Contig9556_at [6, 14]: 1.00 x times; Expression value, 4.1 Contig2118_at [7, 14]: 1.00 x times; Expression value, 1.14 Contig2305_at [8, 14]: 41.07 x times; Expression value, 2.3 Contig88_x_at [9, 14]: 21.86 x times; Expression value, 1.3 Contig3097_at [10, 14]: 1.00 x times; Expression value, 2.1 Contig2088_s_at [11, 14]: 4.79 x times; Expression value, 1.10 Contig1736_at [12, 14]: 1.00 x times; Expression value, 1.13 Contig10030_at [13, 14]: 1.00 x times |
